This passage reports Ki and Km results from patent publication US6017934A, “Thrombin inhibitors” (Merck & Co., Inc., priority 1998, dated 2000).

Format in all cases: biochemical
In assay [1] the target is T1, human a-thrombin (Homo sapiens, UniProt P00734). Put plainly: In vitro thrombin inhibition (Ki). Particulars: 25° C., 0.05 M TRIS pH 7.4, 0.15 M NaCl, 0.1% PEG; read-out: trombin Ki. The procedure: (§1) Assays of human a-thrombin and human trypsin were performed at 25° C. in 0.05 M TRIS buffer pH 7.4, 0.15 M NaCl, 0.1% PEG. Trypsin assays also contained 1 mM CaCl2.
(§2) Concentrations of stock solutions of Z-GPR-afc were determined from measurements of absorbance at 380 nm of the 7-amino-4-trifluoromethyl coumarin produced upon complete hydrolysis of an aliquot of the stock solution by thrombin.
Times required to achieve equilibration between enzyme and inhibitor were determined in control experiments. Initial velocities of product formation in the absence (Vo) or presence of inhibitor (Vi) were measured. Assuming competitive inhibition, and that unity is negligible compared Km /[S], […] (where [S], [I], and e respectively represent the total concentrations, of substrate, inhibitor and enzyme), the equilibrium constant (Ki) for dissociation of the inhibitor from the enzyme can be obtained from the dependence of Vo /Vi on [I] shown in equation 1.

In another assay the test system is human trypsin. Briefly: Rate of hydrolysis of p-nitroanilide substrate by trypsin. Particulars: 405 nm, 1 mM CaCl2. The procedure: as §1
Assay [2] addresses T1, human a-thrombin. Briefly: Thrombin catalyzed hydrolysis of fluorogenic substrate. The conditions noted are these: 500 nm (excitation 400 nm). The procedure:
as §1, §2

Molecules are shown by their SMILES. Residues, ends and D or L forms follow the SMILES beside them. Bounds are passed on as bounds.

The Ki is the equilibrium dissociation constant of an inhibitor or competing ligand from its target. With `Cc1nc(N)ccc1CNC(=O)Cn1c(C)cc(Sc2ccccc2)c(NS(C)(=O)=O)c1=O`, the inhibitory constant (Ki) on human a-thrombin [1] is > 0.01 µM.

In general, Km refers to the concentration of substrate that gives half-maximal velocity. Take `CNCC(=O)N1CCC[C@H]1C(=O)N[C@@H](CCCNC(=N)N)C(=O)Nc1ccc([N+](=O)[O-])cc1` [sar-PR-pna, sarcosine-Pro-Arg-p-nitroanilide] (HELM PEPTIDE1{[Sar].P.R.[O=[N+]([O-])c1ccc(N[*:1])cc1]}$$$$V2.0): the Km in the assay on human trypsin is 59 µM.

Take `N=C(N)NCCC[C@H](NC(=O)[C@@H]1CCCN1C(=O)CNC(=O)OCc1ccccc1)C(=O)Nc1ccc2c(C(F)(F)F)cc(=O)oc2c1` [Z-GPR-afc, Cbz-Gly-Pro-Arg-7-amino-4-trifluoromethylcoumarin] (HELM PEPTIDE1{[O=C(OCc1ccccc1)[*:2]].G.P.R.[O=c1cc(C(F)(F)F)c2ccc(N[*:1])cc2o1]}$$$$V2.0): on human a-thrombin [2], the Km amounted to 27 µM.

Take `Cc1cc(Sc2ccccc2)c(N)c(=O)n1CC(=O)NCc1cc(Cl)ccc1OCC(=O)NC1CC1`: the inhibition constant Ki at human a-thrombin [1] is < 0.01 µM.
